From patent publication US12139488B2, “Pyrido[3,2-d]pyrimidine compounds uses thereof for treating a proliferative disease” (Universite de Montreal, priority 2021, dated 2024)
Where two headings read alike, the source gives them in different places.

Legend:
[1] = molecular target: BRAF (Homo sapiens (Human), UniProt P15056); test: BRAF kinase activity assay (ADP-Glo); assay type: biochemical
Description: (§1) Compound preparation: solid samples of each substances in 1 dram vials were suspended in DMSO (Fisher Scientific) at a stock concentration of 20 mM. Stocks were kept at −20° C. and protected from light.
(§2) In vitro enzymatic reactions were used for evaluating compounds intrinsic activity against BRAF, CRAF and ARAF. […] Separate reactions were performed with the MEK1 substrate and ATP as a blank control.
(§3) For compound treatment, 5 μL/well of test substance solution are placed in a 384-well proxyplate (Perkin Elmer) and mixed with 2× concentrated kinase reactions. The dilution series is selected so that nine concentrations cover a range from 100 nM to 0.01 nM. […] The final concentration of DMSO in the assay is set at 0.05%.
(§4) BRAF and CRAF kinase reactions were carried out for a total of 2 hours at 30° C. and then stopped by ½ dilution in ADP-Glo Reagent (cat #V9102; Promega; part V912C). Reactions were then incubated for 1h at room temperature before addition of one volume of Kinase Detection Reagent (cat #V9102; Promega; part V917A). Plates were then equilibrated at room temperature for 30 minutes before detection of luminescence on a Synergy Neo2 plate reader (Biotek). The effect of each compound dilution on BRAF and CRAF kinase activity was expressed as % inhibition and calculated as follows.
(§5) IC50 values were obtained by plotting the kinase inhibition values and fitting the dose-activity curves using a log(agonist) versus response-variable slope (four parameters) function using either GraphPadPrism (V7.0) or Dotmatics Screening Ultra platform.

[2] = molecular target: CRAF (Homo sapiens, UniProt P04049); test: CRAF kinase activity assay (ADP-Glo); assay type: biochemical
Description: as §1, §2, §3, §4, §5

[3] = tested on: pERK in HCT-116 cells (KRAS G13D); test: Phospho-ERK inhibition (AlphaLISA SureFire Ultra p-ERK 1/2), HCT116; assay type: cell-based, human; conditions: for HCT116 pERK % Ymin (lowest value of the IC50 curve): Ymin above −20% = minimal or no paradoxical activation
Summary of the method: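 Read-out: AlphaLISA p-ERK1/2 (Thr202/Tyr204) in lysates after 1 h exposure to compound in complete RPMI-1640, 5% FBS, 0.5% DMSO. Trametinib defined 100% inhibition and vehicle 0%; IC50 values come from four-parameter curves. Negative inhibition was taken as paradoxical pERK induction.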

[4] = tested on: pERK in SW480 cells (KRAS G12D); test: Phospho-ERK inhibition (AlphaLISA), SW480; assay type: cell-based, human; conditions: SW480 cells; for SW480 pERK Ymin %: Ymin in brackets; for IC50: class symbol before the bracket
Description: All cancer cell lines (A375, A101D, A2058, RKO, HT29 SK-MEL 30, IPC298, HepG2, HCT-116, Lovo, SWV620, SW480, NCI-H358, NCI-H2122, Calu-6, NCIH2087, NCIH1755, NCIH1666 and Mewo) were obtained from ATCC and cultured in RPMI-1640 medium (Gibco) supplemented with 5% heat inactivated fetal bovine serum (FBS, Wisent) at 37° C. under 5% CO2. Cells were maintained in T175 flasks (Greiner). They were passaged by removing the culture medium, washing once in 10 mL of room temperature Phosphate Buffered Saline (PBS; Wisent) and incubating at 37° C. with 2 mL of 0.05% Trypsin (Thermo-Fisher). Trypsin was then inactivated by adding complete growth medium and the cells were then replated in a T175 culture dish at the appropriate dilution. All cell lines were routinely tested for mycoplasma contamination. Tissue type and mutational status of each cell line can be found in Table B.
AlphaLISA® SureFire® Ultra™ p-ERK 1/2 (Thr202/Tyr204) analysis was conducted on cells plated in 100 μL of complete RPMI-1640 growth medium in 96-well flat-bottomed transparent dishes (Costar) at a density indicated in Table C. Cells were maintained overnight at 37° C. under 5% CO2 before treatment with compounds' dilution series for one hour. The cell density in cells/cm^2 corresponds to cell number divided by the area of one well of a 96-well plate ([…]).
In a dilution series 100 μL/well of test substance dilution prepared in complete RPMI-1640 growth media was added to the cells. The dilution series is selected so that ten concentrations cover a range from 10 μM to 0.33 nM. If necessary the initial concentration of 10 μM is increased to 100 μM or lowered to 1 μM (as in the case of A375 and H1666 cells, which are generally more sensitive to the compounds) and further dilution is carried out accordingly. The final concentration of DMSO in the assay is set at 0.5%.
After treatment, media was removed and cells were lysed in 50 μL of 1× AlphaScreen Ultra Lysis Buffer (Perkin Elmer). The AlphaLISA® SureFire® Ultra™ p-ERK 1/2 (Thr202/Tyr2O4) (PerkinElmer) reactions were performed with 5 μL of cell lysate according to the manufacturer's specifications in 384-well proxyplates (Perkin Elmer) followed by overnight incubation of the reactions at room temperature in a humidified chamber. After completion of the reactions, the signals were recorded on an EnVision plate reader (Perkin Elmer) using built in AlphaLISA® settings.
The effect of each compound dilution on the pERK signal was expressed in % inhibition and calculated as follows. An internal 100% inhibition control ([…] trametinib, cat #HY-10999; MedChem Express; CAS #871700-17-3) was included in each plate and used as a measure of pERK background. First, the value obtained for trametinib was subtracted from each data point. The average of DMSO (vehicle) controls (set as 0% inhibition) was established and used to calculate % inhibition: % inhibition=100*(1-((pERK signalcompound)/(pERK signalDMSO)))
The ability of each compound to inhibit pERK signal was expressed as an IC50 value obtained by plotting the inhibition values for each data point of a dilution series and fitting the obtained curves using a log(agonist) versus response-variable slope (four parameters) function using GraphPadPrism (V7.0) or Dotmatics Screening Ultra platform.
When present, paradoxical pERK induction is inferred from the negative % inhibition values observed in the pERK IC50 curves of a compound.

[5] = read-out: Kinase IC50 (nM) BRAF
[6] = read-out: Kinase IC50 (nM) CRAF
[7] = HCT116 cells, class symbol before the bracket
[8] = BRAF, read-out: Kinase IC50 (nM), BRAF biochemical kinase assay
[9] = CRAF, read-out: Kinase IC50 (nM), CRAF biochemical kinase assay
[10] = Table 5, read-out: Kinase IC50 (nM) BRAF
[11] = Table 5, read-out: Kinase IC50 (nM) CRAF
[12] = lowest value of the curve, HCT116, Table 5

Chain of CRAF (P04049 whole entry, looked up): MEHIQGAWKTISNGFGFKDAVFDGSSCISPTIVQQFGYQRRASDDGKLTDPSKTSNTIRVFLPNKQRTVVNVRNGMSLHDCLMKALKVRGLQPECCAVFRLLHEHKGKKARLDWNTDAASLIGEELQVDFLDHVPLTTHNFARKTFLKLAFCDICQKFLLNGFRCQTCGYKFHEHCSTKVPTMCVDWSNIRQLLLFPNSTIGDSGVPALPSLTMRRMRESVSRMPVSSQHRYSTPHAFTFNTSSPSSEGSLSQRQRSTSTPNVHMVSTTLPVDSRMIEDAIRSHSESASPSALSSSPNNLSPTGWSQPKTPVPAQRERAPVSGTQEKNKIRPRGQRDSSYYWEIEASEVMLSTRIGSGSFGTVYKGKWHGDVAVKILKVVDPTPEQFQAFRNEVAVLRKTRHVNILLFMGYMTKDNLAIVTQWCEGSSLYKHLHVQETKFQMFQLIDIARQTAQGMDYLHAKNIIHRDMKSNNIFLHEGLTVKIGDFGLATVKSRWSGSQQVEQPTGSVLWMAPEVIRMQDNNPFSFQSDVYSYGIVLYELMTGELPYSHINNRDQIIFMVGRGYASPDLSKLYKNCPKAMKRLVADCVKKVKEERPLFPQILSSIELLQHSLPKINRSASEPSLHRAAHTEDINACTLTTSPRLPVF
Chain of BRAF (P15056 whole entry): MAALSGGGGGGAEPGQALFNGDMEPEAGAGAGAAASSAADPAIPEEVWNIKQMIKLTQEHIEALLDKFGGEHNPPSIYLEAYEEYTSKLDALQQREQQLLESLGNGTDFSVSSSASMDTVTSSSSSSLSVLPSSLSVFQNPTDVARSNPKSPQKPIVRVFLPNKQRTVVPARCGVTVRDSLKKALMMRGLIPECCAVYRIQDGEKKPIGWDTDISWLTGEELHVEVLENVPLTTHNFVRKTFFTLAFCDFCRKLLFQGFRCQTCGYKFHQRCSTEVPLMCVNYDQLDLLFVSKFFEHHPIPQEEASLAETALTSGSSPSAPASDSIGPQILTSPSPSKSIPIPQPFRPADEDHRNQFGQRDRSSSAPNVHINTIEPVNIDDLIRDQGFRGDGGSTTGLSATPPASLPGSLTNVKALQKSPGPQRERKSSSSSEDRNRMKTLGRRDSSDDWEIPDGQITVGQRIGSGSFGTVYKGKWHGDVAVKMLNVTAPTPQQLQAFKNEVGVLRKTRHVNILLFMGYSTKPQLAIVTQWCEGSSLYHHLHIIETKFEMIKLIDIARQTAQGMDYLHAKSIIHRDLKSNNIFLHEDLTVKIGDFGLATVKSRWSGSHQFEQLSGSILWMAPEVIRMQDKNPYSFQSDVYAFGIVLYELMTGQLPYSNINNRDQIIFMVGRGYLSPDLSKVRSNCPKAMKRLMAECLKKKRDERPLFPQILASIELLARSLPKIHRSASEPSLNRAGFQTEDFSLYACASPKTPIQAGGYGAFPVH

IC50 [1, 8] [nM]	IC50 [2, 9] [nM]	IC50 ([3]; HCT116 cells) [nM]	HCT116 pERK % Ymin (lowest value of the IC50 curve) ([3]; HCT116 cells) [%]	Structure (SMILES)	further results
1 to 10	< 10	< 500	−2	N#CC1(c2cccc3c2nnn3-c2ccc3ncnc(Nc4c(F)ccc(NS(=O)(=O)c5cccc(Cl)c5Cl)c4F)c3n2)CC1 [Example 610]	–
1 to 10	< 10	< 500	−10	O=S(=O)(Nc1ccc(F)c(Nc2ncnc3ccc(-n4cnc5c(C6(CO)CC6)cccc54)nc23)c1F)c1cccc(Cl)c1Cl [Example 612]	–
1 to 10	10 to 50	500 to 1000	−3	CN1CCN(c2ncc(-c3ccc4ncnc(Nc5c(F)ccc(NS(=O)(=O)c6cccc(Cl)c6Cl)c5F)c4n3)s2)CC1 [Example 613]	–
< 1	< 10	< 500	−2	O=S(=O)(Nc1ccc(F)c(Nc2ncnc3ccc(-n4cnc5c(N6CCNCC6)cccc54)nc23)c1F)c1cccc(Cl)c1Cl [Example 634]	–
< 1	< 10	< 500	−5	O=S(=O)(Nc1ccc(F)c(Nc2ncnc3ccc(-n4cnc5c(N6CCC(O)(CCO)CC6)cccc54)nc23)c1F)c1cccc(Cl)c1Cl [Example 671]	–
< 1	< 10	< 500	−9	O=S(=O)(Nc1ccc(F)c(Nc2ncnc3ccc(-n4cnc5c(C6CCN(CCO)CC6)cccc54)nc23)c1F)c1cccc(Cl)c1Cl [Example 681]	–

Continued, molecule first:

Structure (SMILES)	IC50 [1, 8] [nM]	IC50 [2, 9] [nM]	IC50 ([3]; HCT116 cells) [nM]	HCT116 pERK % Ymin (lowest value of the IC50 curve) ([3]; HCT116 cells) [%]	further results
COc1ccc(S(=O)(=O)Nc2ccc(F)c(Nc3ncnc4ccc(-c5cncs5)nc34)c2F)c(C)c1 [Ex 59]	–	–	–	–	IC50 [1, 5]: > 10 nM; IC50 [2, 6]: 10 to 50 nM; HCT116 pERK Ymin % ([3]; HCT116 cells, Ymin in brackets): −0.7%; IC50 [3, 7]: 500 to 1000 nM; SW480 pERK Ymin % [4]: −4.9%; IC50 [4]: 500 to 1000 nM
COc1cncc(-c2ccc3ncnc(Nc4c(F)ccc(NS(=O)(=O)c5ccc(OC)cc5C)c4F)c3n2)c1 [Ex 62]	–	–	–	–	IC50 [1, 5]: > 10 nM; IC50 [2, 6]: > 50 nM; HCT116 pERK Ymin % ([3]; HCT116 cells, Ymin in brackets): −9%; IC50 [3, 7]: 1000 to 10000 nM; SW480 pERK Ymin % [4]: 8%; IC50 [4]: 1000 to 10000 nM
Cc1ncn(-c2ccc3ncnc(Nc4c(F)ccc(NS(=O)(=O)c5ccccc5Cl)c4F)c3n2)c1C [Ex 66]	–	–	–	–	IC50 [1, 5]: 1 to 10 nM; IC50 [2, 6]: 10 to 50 nM; HCT116 pERK Ymin % ([3]; HCT116 cells, Ymin in brackets): −2%; IC50 [3, 7]: 1000 to 10000 nM; SW480 pERK Ymin % [4]: −5%; IC50 [4]: 1000 to 10000 nM
O=S(=O)(Nc1ccc(F)c(Nc2ncnc3ccc(-c4cncs4)nc23)c1F)c1ccccc1Cl [Ex 67]	–	–	–	–	IC50 [1, 5]: 1 to 10 nM; IC50 [2, 6]: 10 to 50 nM; HCT116 pERK Ymin % ([3]; HCT116 cells, Ymin in brackets): −3.6%; IC50 [3, 7]: 500 to 1000 nM; SW480 pERK Ymin % [4]: −1.3%; IC50 [4]: 500 to 1000 nM
Cc1ncc(-c2ccc3ncnc(Nc4c(F)ccc(NS(=O)(=O)c5cccc(Cl)c5Cl)c4F)c3n2)[nH]1 [Example 595]	1 to 10	10 to 50	1000 to 10000	−16	–
O=S(=O)(Nc1ccc(F)c(Nc2ncnc3ccc(-n4cnc5c(N6C7CCC6CN(CCO)C7)cccc54)nc23)c1F)c1cccc(Cl)c1Cl [Example 629]	1 to 10	10 to 50	–	−2	–
O=S(=O)(Nc1ccc(F)c(Nc2ncnc3ccc(-c4cnc(N5CCOCC5)s4)nc23)c1F)c1cccc(Cl)c1Cl [Example 631]	> 10	10 to 50	< 500	0	–
O=S(=O)(Nc1cccc(Nc2ncnc3ccc(-n4cnc5ccccc54)nc23)c1F)c1cccc(Cl)c1Cl [Example 646]	–	–	–	–	IC50 [1, 10]: 1 to 10 nM; IC50 [2, 11]: 10 to 50 nM; IC50 ([3]; HCT116 cells, Table 5): < 500 nM; HCT116 pERK Ymin % [3, 12]: −3%
O=S(=O)(Nc1cc(F)c(F)c(Nc2ncnc3ccc(-n4cnc5ccccc54)nc23)c1F)c1cccc(Cl)c1Cl [Example 648]	–	–	–	–	IC50 [1, 10]: 1 to 10 nM; IC50 [2, 11]: < 10 nM; IC50 ([3]; HCT116 cells, Table 5): < 500 nM; HCT116 pERK Ymin % [3, 12]: −1%
O=S(=O)(Nc1cc(F)c(F)c(Nc2ncnc3ccc(-n4nnc5ccccc54)nc23)c1F)c1cccc(Cl)c1Cl [Example 649]	–	–	–	–	IC50 [1, 10]: 1 to 10 nM; IC50 [2, 11]: < 10 nM; IC50 ([3]; HCT116 cells, Table 5): < 500 nM; HCT116 pERK Ymin % [3, 12]: 3%
O=S(=O)(Nc1ccc(F)c(Nc2ncnc3ccc(-n4cnc5ccccc54)nc23)c1F)c1ccc(C(F)(F)F)cc1Cl [Example 653]	–	–	–	–	IC50 [1, 5]: > 10 nM; IC50 [2, 6]: > 50 nM; IC50 ([3]; HCT116 cells, 1 h treatment): 1000 to 10000 nM; HCT116 pERK Ymin % ([3]; lowest % inhibition value of the IC50 curve, HCT116): −13%
O=S(=O)(Nc1ccc(F)c(Nc2ncnc3ccc(-n4cnc5c(C6CCNCC6)cccc54)nc23)c1F)c1cccc(Cl)c1Cl [Example 662, 2,3-dichloro-N-[2,4-difluoro-3-[[6-[4-(4-piperidyl)benzimidazol-1-yl]pyrido[3,2-d]pyrimidin-4-yl]amino]phenyl]benzenesulfonamide]	< 1	–	–	−6	IC50 [2]: < 10 nM; IC50 ([3]; Homo sapiens, HCT-116, HCT116 cells): 1000 to 10000 nM
Cc1c(F)cccc1S(=O)(=O)Nc1ccc(F)c(Nc2ncnc3ccc(-n4ncc5c4CN(C)CC5)nc23)c1F [Example 664]	1 to 10	> 50	1000 to 10000	−15	–
Cc1cn(-c2ccc3ncnc(Nc4c(F)ccc(NS(=O)(=O)c5cccc(Cl)c5Cl)c4F)c3n2)nn1 [Example 684]	< 1	< 10	< 500	−14	–
CCC1(O)CCN(c2nccc3c2ncn3-c2ccc3ncnc(Nc4c(F)ccc(NS(=O)(=O)c5cccc(Cl)c5Cl)c4F)c3n2)CC1 [Example 691]	1 to 10	10 to 50	< 500	6	–
